According to US10722495B2, “Cyanoindazole compounds and uses thereof” (Incyte Corporation, priority 2017, dated 2020):

target: HPK1 (Homo sapiens (Human), UniProt Q92918); experiment: HPK1 Kinase Binding Assay; details: active HPK1 (SignalChem M23-11G), tracer 222, LanthaScreen Eu-Anti GST antibody, one hour incubation at 25° C.
Protocol: Example A. HPK1 Kinase Binding Assay
A stock solution of 1 mM test compound was prepared in DMSO. The compound plate was prepared by 3-fold and 11-point serial dilutions. 0.1 μL of the compound in DMSO was transferred from the compound plate to the white 384 well polystyrene plates. The assay buffer contained 50 mM HEPES, pH 7.5, 0.01% Tween-20, 5 mM MgCl2, 0.01% BSA, and 5 mM DTT. 5 μl of 4 nM active HPK1 (SignalChem M23-11G) prepared in the buffer was added to the plate. The enzyme concentration given was based on the given stock concentration reported by the vender. 5 μl of 18 nM tracer 222 (ThermoFisher PV6121) and 4 nM LanthaScreen Eu-Anti GST antibody (ThermoFisher PV5595) were added. After one hour incubation at 25° C., the plates were read on a PHERAstar FS plate reader (BMG Labtech). Ki values were determined.

HPK1, sequence (Q92918 1-346): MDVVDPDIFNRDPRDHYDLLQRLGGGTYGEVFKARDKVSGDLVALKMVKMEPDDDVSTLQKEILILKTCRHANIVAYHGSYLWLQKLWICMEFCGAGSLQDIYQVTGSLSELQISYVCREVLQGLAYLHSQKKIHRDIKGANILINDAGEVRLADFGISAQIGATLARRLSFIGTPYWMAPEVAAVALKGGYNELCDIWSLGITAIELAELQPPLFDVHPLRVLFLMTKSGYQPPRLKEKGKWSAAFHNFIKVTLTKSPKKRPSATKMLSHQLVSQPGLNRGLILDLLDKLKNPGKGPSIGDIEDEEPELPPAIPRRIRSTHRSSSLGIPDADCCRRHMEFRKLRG

Ki [nM] | Compound
≤ 100 | CNCc1cc(C)c(-c2cc3c(-c4ccc(C(C)(C)O)nc4)n[nH]c3cc2C#N)c(F)c1 [Example 33, 5-(2-Fluoro-6-methyl-4-((methylamino)methyl)phenyl)-3-(6-(2-hydroxypropan-2-yl)pyridin-3-yl)-1H-indazole-6-carbonitrile]
≤ 100 | CNCc1cc(C)c(-c2cc3c(-c4ccc(C)nc4)n[nH]c3cc2C#N)c(F)c1 [Example 34, 5-(2-Fluoro-6-methyl-4-((methylamino)methyl)phenyl)-3-(6-methylpyridin-3-yl)-1H-indazole-6-carbonitrile]
≤ 100 | CNCc1cc(C)c(-c2cc3c(-c4cnc(OC)nc4)n[nH]c3cc2C#N)c(F)c1 [Example 35, 5-(2-Fluoro-6-methyl-4-((methylamino)methyl)phenyl)-3-(2-methoxypyrimidin-5-yl)-1H-indazole-6-carbonitrile]
≤ 100 | CNCc1cc(C)c(-c2cc3c(-c4cnco4)n[nH]c3cc2C#N)c(F)c1 [Example 36, 5-(2-Fluoro-6-methyl-4-((methylamino)methyl)phenyl)-3-(oxazol-5-yl)-1H-indazole-6-carbonitrile]
≤ 100 | CNCc1cc(C)c(-c2cc3c(-c4cnsc4)n[nH]c3cc2C#N)c(F)c1 [Example 37, 5-(2-Fluoro-6-methyl-4-((methylamino)methyl)phenyl)-3-(isothiazol-4-yl)-1H-indazole-6-carbonitrile]
≤ 100 | CNCc1cc(C)c(-c2cc3c(-c4cnoc4)n[nH]c3cc2C#N)c(F)c1 [Example 38, 5-(2-Fluoro-6-methyl-4-((methylamino)methyl)phenyl)-3-(isoxazol-4-yl)-1H-indazole-6-carbonitrile]
≤ 100 | CNCc1cc(C)c(-c2cc3c(-c4ccc(C5CCOCC5)cc4)n[nH]c3cc2C#N)c(F)c1 [Example 39, 5-(2-Fluoro-6-methyl-4-((methylamino)methyl)phenyl)-3-(4-(tetrahydro-2H-pyran-4-yl)phenyl)-1H-indazole-6-carbonitrile]
≤ 100 | CNCc1cc(C)c(-c2cc3c(-c4cnc(C)o4)n[nH]c3cc2C#N)c(F)c1 [Example 40, 5-(2-Fluoro-6-methyl-4-((methylamino)methyl)phenyl)-3-(2-methyloxazol-5-yl)-1H-indazole-6-carbonitrile]
≤ 100 | CNCc1cc(C)c(-c2cc3c(-c4ccc(N5CC[C@H](F)C5)nc4)n[nH]c3cc2C#N)c(F)c1 [Example 41, 5-(2-Fluoro-6-methyl-4-((methylamino)methyl)phenyl)-3-(6-((S)-3-fluoropyrrolidin-1-yl)pyridin-3-yl)-1H-indazole-6-carbonitrile]
≤ 100 | CNCc1cc(C)c(-c2cc3c(-c4ccc(N5CCC(O)CC5)nc4)n[nH]c3cc2C#N)c(F)c1 [Example 42, 5-(2-Fluoro-6-methyl-4-((methylamino)methyl)phenyl)-3-(6-(4-hydroxypiperidin-1-yl)pyridin-3-yl)-1H-indazole-6-carbonitrile]
≤ 100 | CC[C@@H](C)Nc1ccc(-c2n[nH]c3cc(C#N)c(-c4c(C)cc(CNC)cc4F)cc23)cn1 [Example 43, 3-(6-(((R)-sec-Butyl)amino)pyridin-3-yl)-5-(2-fluoro-6-methyl-4-((methylamino)methyl)phenyl)-1H-indazole-6-carbonitrile]
≤ 100 | CNCc1cc(C)c(-c2cc3c(-c4ccc(N5CC(CO)C5)nc4)n[nH]c3cc2C#N)c(F)c1 [Example 44, 5-(2-Fluoro-6-methyl-4-((methylamino)methyl)phenyl)-3-(6-(3-(hydroxymethyl)azetidin-1-yl)pyridin-3-yl)-1H-indazole-6-carbonitrile]
≤ 100 | CNCc1cc(C)c(-c2cc3c(-c4cccc(N5CCC(O)CC5)n4)n[nH]c3cc2C#N)c(F)c1 [Example 45, 5-(2-Fluoro-6-methyl-4-((methylamino)methyl)phenyl)-3-(6-(4-hydroxypiperidin-1-yl)pyridin-2-yl)-1H-indazole-6-carbonitrile]
≤ 100 | CNCc1cc(C)c(-c2cc3c(-c4cccc(N5CCN(C)CC5)n4)n[nH]c3cc2C#N)c(F)c1 [Example 46, 5-(2-Fluoro-6-methyl-4-((methylamino)methyl)phenyl)-3-(6-(4-methylpiperazin-1-yl)pyridin-2-yl)-1H-indazole-6-carbonitrile]
≤ 100 | CNCc1cc(C)c(-c2cc3c(-c4cccc(N5CC[C@H](N(C)C)C5)n4)n[nH]c3cc2C#N)c(F)c1 [Example 47, 3-(6-((S)-3-(Dimethylamino)pyrrolidin-1-yl)pyridin-2-yl)-5-(2-fluoro-6-methyl-4-((methylamino)methyl)phenyl)-1H-indazole-6-carbonitrile]
≤ 100 | Cc1ccccc1-c1cc2c(-c3cnn(C)c3)n[nH]c2cc1C#N [Example 48, 3-(1-Methyl-1H-pyrazol-4-yl)-5-o-tolyl-1H-indazole-6-carbonitrile]
≤ 100 | Cn1cc(-c2n[nH]c3cc(C#N)c(-c4ccccc4F)cc23)cn1 [Example 49, 5-(2-Fluorophenyl)-3-(1-methyl-1H-pyrazol-4-yl)-1H-indazole-6-carbonitrile]
≤ 100 | COc1cccc(F)c1-c1cc2c(-c3cnn(C)c3)n[nH]c2cc1C#N [Example 50, 5-(2-Fluoro-6-methoxyphenyl)-3-(1-methyl-1H-pyrazol-4-yl)-1H-indazole-6-carbonitrile]
≤ 100 | Cc1cccc(F)c1-c1cc2c(-c3cnn(C)c3)n[nH]c2cc1C#N [Example 51, 5-(2-Fluoro-6-methylphenyl)-3-(1-methyl-1H-pyrazol-4-yl)-1H-indazole-6-carbonitrile]
